# Test results reported in patent US20250235434A1, “RIFABUTIN ANALOGS FOR THE TREATMENT OF DISEASE” (BIOVERSYS AG, priority 2022, published 2025).
# Like-named read-outs stand apart in the source and are kept apart here.
# Assays:
# Assay type in all cases: cell-based
# [1] = test system: A. baumannii (HUMC1 strain); test: MIC by broth microdilution against A. baumannii; settings: Acinetobacter baumannii, RPMI medium supplemented with 10% FCS, 35° C. for 20 hours, visual reading
# [2] = test system: S. aureus (UAMS-1625 strain); test: MIC by broth microdilution against S. aureus; settings: Staphylococcus aureus, 20 h, read-out: MIC S. aureus
# [3] = test system: M. abscessus (ATCC 19977); test: MIC by broth microdilution against M. abscessus; settings: Mycobacteroides abscessus
# [4] = test system: M. kansasii (ATCC 12478); test: MIC against M. kansasii (resazurin assay); settings: Mycobacterium kansasii, ATCC12478, 168 h, Middlebrook 7H9 + ADC, 90% growth inhibition, 7 days
# [5] = test system: M. smegmatis (ATCC 700084); test: MIC against M. smegmatis (resazurin assay); settings: Mycolicibacterium smegmatis, ATCC700084, Middlebrook 7H9 + ADC, 90% growth inhibition, 20 h
# [6] = test system: M. avium (ATCC 25291); test: MIC against M. avium (resazurin assay); settings: Mycobacterium avium, ATCC25291, 168 h, Middlebrook 7H9 + ADC, 90% growth inhibition, 7 days
# [7] = test system: M. tuberculosis H37Rv (ATCC 27294); test: microbe, parasite or virus in culture; settings: Mycobacterium tuberculosis, 120 h
# [8] = test system: M. xenopi (ATCC 19250); test: MIC against M. xenopi (resazurin assay); settings: Mycobacterium xenopi, ATCC19250, 168 h, Middlebrook 7H9 + ADC, 90% growth inhibition, 7 days
# [9] = ATCC19977, 20 h, ATCC 19977, Middlebrook 7H9 broth with ADC supplement, visual reading, read-out: MIC M. abscessus
SMILES,MIC [1],MIC [2],"MIC [3, 9]",MIC [4],MIC [5],MIC [6],MIC [7],MIC [8],"MIC ([3]; ATCC19977, tested M. abscessus strains, read-out: MIC value on M. abscessus)"
CO[C@H]1/C=C/O[C@@]2(C)Oc3c(C)c(O)c4c(c3C2=O)C2=NC3(CCN(CC(C)C)CC3)NC2=C(NC(=O)/C(C)=C\C=C\[C@H](C)[C@H](O)[C@@H](C)[C@@H](O)[C@@H](C)[C@H](OC(=O)CNCC2CCN(C)CC2)[C@@H]1C)C4=O [Compound 1],≤ 0.002 µg/mL,0.06 µg/mL,2 µg/mL,,,,,,
CO[C@H]1/C=C/O[C@@]2(C)Oc3c(C)c(O)c4c(c3C2=O)C2=NC3(CCN(CC(C)C)CC3)NC2=C(NC(=O)/C(C)=C\C=C\[C@H](C)[C@H](O)[C@@H](C)[C@@H](O)[C@@H](C)[C@H](OC(=O)CNC2CCN(C)CC2)[C@@H]1C)C4=O [Compound 2],≤ 0.002 µg/mL,0.06 µg/mL,2 µg/mL,0.02 µg/mL,0.03 µg/mL,1.2 µg/mL,0.02 µg/mL,0.08 µg/mL,
CO[C@H]1/C=C/O[C@@]2(C)Oc3c(C)c(O)c4c(c3C2=O)C2=NC3(CCN(CC(C)C)CC3)NC2=C(NC(=O)/C(C)=C\C=C\[C@H](C)[C@H](O)[C@@H](C)[C@@H](O)[C@@H](C)[C@H](OC(=O)CN2CCC(N(C)C)CC2)[C@@H]1C)C4=O [Compound 3],≤ 0.002 µg/mL,0.03 µg/mL,1 µg/mL,0.01 µg/mL,0.03 µg/mL,1.2 µg/mL,0.008 µg/mL,0.07 µg/mL,
CO[C@H]1/C=C/O[C@@]2(C)Oc3c(C)c(O)c4c(c3C2=O)C2=NC3(CCN(CC(C)C)CC3)NC2=C(NC(=O)/C(C)=C\C=C\[C@H](C)[C@H](O)[C@@H](C)[C@@H](O)[C@@H](C)[C@H](OC(=O)CN2CCCCC2)[C@@H]1C)C4=O [Compound 4],0.004 µg/mL,0.06 µg/mL,4 µg/mL,,,,,,
CO[C@H]1/C=C/O[C@@]2(C)Oc3c(C)c(O)c4c(c3C2=O)C2=NC3(CCN(CC(C)C)CC3)NC2=C(NC(=O)/C(C)=C\C=C\[C@H](C)[C@H](O)[C@@H](C)[C@@H](O)[C@@H](C)[C@H](OC(=O)CN2CCN(c3ccccc3)CC2)[C@@H]1C)C4=O [Compound 7],0.06 µg/mL,0.5 µg/mL,0.5 µg/mL,,,,,,
CO[C@H]1/C=C/O[C@@]2(C)Oc3c(C)c(O)c4c(c3C2=O)C2=NC3(CCN(CC(C)C)CC3)NC2=C(NC(=O)/C(C)=C\C=C\[C@H](C)[C@H](O)[C@@H](C)[C@@H](O)[C@@H](C)[C@H](OC(=O)CNCCN2CCCCC2)[C@@H]1C)C4=O [Compound 8],≤ 0.002 µg/mL,0.06 µg/mL,1 µg/mL,,,,,,
CO[C@H]1/C=C/O[C@@]2(C)Oc3c(C)c(O)c4c(c3C2=O)C2=NC3(CCN(CC(C)C)CC3)NC2=C(NC(=O)/C(C)=C\C=C\[C@H](C)[C@H](O)[C@@H](C)[C@@H](O)[C@@H](C)[C@H](OC(=O)CNCCN2CCN(C)CC2)[C@@H]1C)C4=O [Compound 9],≤ 0.002 µg/mL,0.06 µg/mL,2 µg/mL,,,,,,
CO[C@H]1/C=C/O[C@@]2(C)Oc3c(C)c(O)c4c(c3C2=O)C2=NC3(CCN(CC(C)C)CC3)NC2=C(NC(=O)/C(C)=C\C=C\[C@H](C)[C@H](O)[C@@H](C)[C@@H](O)[C@@H](C)[C@H](OC(=O)CNCCCN2CCOCC2)[C@@H]1C)C4=O [Compound 11],0.008 µg/mL,0.06 µg/mL,2 µg/mL,,,,,,
CO[C@H]1/C=C/O[C@@]2(C)Oc3c(C)c(O)c4c(c3C2=O)C2=NC3(CCN(CC(C)C)CC3)NC2=C(NC(=O)/C(C)=C\C=C\[C@H](C)[C@H](O)[C@@H](C)[C@@H](O)[C@@H](C)[C@H](OC(=O)CNCCN(C)C)[C@@H]1C)C4=O [Compound 13],≤ 0.002 µg/mL,0.03 µg/mL,2 µg/mL,,,,,,
CO[C@H]1/C=C/O[C@@]2(C)Oc3c(C)c(O)c4c(c3C2=O)C2=NC3(CCN(CC(C)C)CC3)NC2=C(NC(=O)/C(C)=C\C=C\[C@H](C)[C@H](O)[C@@H](C)[C@@H](O)[C@@H](C)[C@H](OC(=O)CNCC(C)C)[C@@H]1C)C4=O [Compound 17],0.008 µg/mL,0.06 µg/mL,4 µg/mL,,,,,,
CO[C@H]1/C=C/O[C@@]2(C)Oc3c(C)c(O)c4c(c3C2=O)C2=NC3(CCN(CC(C)C)CC3)NC2=C(NC(=O)/C(C)=C\C=C\[C@H](C)[C@H](O)[C@@H](C)[C@@H](O)[C@@H](C)[C@H](OC(=O)CN2CCC(Cc3ccccc3)CC2)[C@@H]1C)C4=O [Compound 21],0.125 µg/mL,4 µg/mL,2 µg/mL,,,,,,
COc1cc(CC2CCN(CC(=O)O[C@H]3[C@H](C)[C@H](O)[C@H](C)[C@@H](O)[C@@H](C)/C=C/C=C(/C)C(=O)NC4=C5NC6(CCN(CC(C)C)CC6)N=C5c5c(c(O)c(C)c6c5C(=O)[C@@](C)(O/C=C/[C@H](OC)[C@H]3C)O6)C4=O)CC2)cc(C(F)(F)F)c1 [Compound 22],0.25 µg/mL,4 µg/mL,4 µg/mL,,,,,,
CO[C@H]1/C=C/O[C@@]2(C)Oc3c(C)c(O)c4c(c3C2=O)C2=NC3(CCN(CC(C)C)CC3)NC2=C(NC(=O)/C(C)=C\C=C\[C@H](C)[C@H](O)[C@@H](C)[C@@H](O)[C@@H](C)[C@H](OC(=O)CN2CCC(C(O)c3nccn3C)CC2)[C@@H]1C)C4=O (some centres unmarked) [Compound 23],0.004 µg/mL,0.125 µg/mL,1 µg/mL,,,,,,
CO[C@H]1/C=C/O[C@@]2(C)Oc3c(C)c(O)c4c(c3C2=O)C2=NC3(CCN(CC(C)C)CC3)NC2=C(NC(=O)/C(C)=C\C=C\[C@H](C)[C@H](O)[C@@H](C)[C@@H](O)[C@@H](C)[C@H](OC(=O)CN2CCC(NC(=O)OC(C)(C)C)CC2)[C@@H]1C)C4=O [Compound 27],0.008 µg/mL,0.125 µg/mL,0.25 µg/mL,,,,,,
CO[C@H]1/C=C/O[C@@]2(C)Oc3c(C)c(O)c4c(c3C2=O)C2=NC3(CCN(CC(C)C)CC3)NC2=C(NC(=O)/C(C)=C\C=C\[C@H](C)[C@H](O)[C@@H](C)[C@@H](O)[C@@H](C)[C@H](OC(=O)CN2CCC(N3CCn5ccnc5C3)CC2)[C@@H]1C)C4=O [Compound 30],≤ 0.002 µg/mL,0.06 µg/mL,1 µg/mL,,,,,,
CO[C@H]1/C=C/O[C@@]2(C)Oc3c(C)c(O)c4c(c3C2=O)C2=NC3(CCN(CC(C)C)CC3)NC2=C(NC(=O)/C(C)=C\C=C\[C@H](C)[C@H](O)[C@@H](C)[C@@H](O)[C@@H](C)[C@H](OC(=O)CN2CC(Nc3ccc(F)cc3)C2)[C@@H]1C)C4=O [Compound 31],0.008 µg/mL,0.06 µg/mL,4 µg/mL,,,,,,
CO[C@H]1/C=C/O[C@@]2(C)Oc3c(C)c(O)c4c(c3C2=O)C2=NC3(CCN(CC(C)C)CC3)NC2=C(NC(=O)/C(C)=C\C=C\[C@H](C)[C@H](O)[C@@H](C)[C@@H](O)[C@@H](C)[C@H](OC(=O)CN2CC(n3cccc3)C2)[C@@H]1C)C4=O [Compound 32],0.008 µg/mL,0.03 µg/mL,2 µg/mL,,,,,,
CC[N+](CC)(CC)CC(=O)O[C@H]1[C@H](C)[C@H](O)[C@H](C)[C@@H](O)[C@@H](C)/C=C/C=C(/C)C(=O)NC2=C3NC4(CCN(CC(C)C)CC4)N=C3c3c(c(O)c(C)c4c3C(=O)[C@@](C)(O/C=C/[C@H](OC)[C@H]1C)O4)C2=O [Compound 36],≤ 0.002 µg/mL,0.125 µg/mL,2 µg/mL,,,,,,
CO[C@H]1/C=C/O[C@@]2(C)Oc3c(C)c(O)c4c(c3C2=O)C2=NC3(CCN(CC(C)C)CC3)NC2=C(NC(=O)/C(C)=C\C=C\[C@H](C)[C@H](O)[C@@H](C)[C@@H](O)[C@@H](C)[C@H](OC(=O)C[n+]2ccccc2)[C@@H]1C)C4=O [Compound 37],0.004 µg/mL,0.25 µg/mL,2 µg/mL,,,,,,
CO[C@H]1/C=C/O[C@@]2(C)Oc3c(C)c(O)c4c(c3C2=O)C2=NC3(CCN(CC(C)C)CC3)NC2=C(NC(=O)/C(C)=C\C=C\[C@H](C)[C@H](O)[C@@H](C)[C@@H](O)[C@@H](C)[C@H](OC(=O)C[n+]2ccc(C)cc2)[C@@H]1C)C4=O [Compound 38],0.004 µg/mL,0.25 µg/mL,2 µg/mL,,,,,,
"CO[C@H]1/C=C/O[C@@]2(C)Oc3c(C)c(O)c4c(O)c(c(/C=N/N5CCN(C)CC5)c(O)c4c3C2=O)NC(=O)/C(C)=C\C=C\[C@H](C)[C@H](O)[C@@H](C)[C@@H](O)[C@@H](C)[C@H](OC(C)=O)[C@@H]1C [Rifampicin, reference compound]",,,,,,,,,> 32 µg/mL
